Assay results as given in patent US6306876A, “4-[aryl(8-azabicyclo[3.2.1]octan-3-yl)]aminobenzoic acid derivatives” (priority 2000, dated 2001).

Molecular target: T1, delta-opioid receptor (Rattus norvegicus, UniProt P33533)
T1 construct: from tissue; host or cells: forebrain particulate (membrane) preparation of male Wistar rats (animals from Charles River, Kingston, N.Y.)
Assay: Rat Brain Delta-Opioid Receptor Binding Assay
Parameters: species or system rat (Wistar)
Details: rat forebrain homogenate, [3H]DPDPE, 25° C., pH 7.4; read-out: Delta K

T1 sequence (P33533 whole entry): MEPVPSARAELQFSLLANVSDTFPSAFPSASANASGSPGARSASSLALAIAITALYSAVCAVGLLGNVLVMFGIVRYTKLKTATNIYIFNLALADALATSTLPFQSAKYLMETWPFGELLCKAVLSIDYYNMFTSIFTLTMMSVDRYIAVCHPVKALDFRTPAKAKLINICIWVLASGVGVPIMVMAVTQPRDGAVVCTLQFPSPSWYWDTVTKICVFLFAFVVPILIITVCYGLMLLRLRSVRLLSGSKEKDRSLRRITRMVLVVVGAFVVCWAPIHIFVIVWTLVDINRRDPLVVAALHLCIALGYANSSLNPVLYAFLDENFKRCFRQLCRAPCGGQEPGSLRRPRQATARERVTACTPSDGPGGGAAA

CN1C2CCC1CC(N(c1ccccc1)c1cccc(C(=O)OC(C)(C)C)c1)C2 (stereo not drawn) [Example 38, 1,1-Dimethylethyl 3-[phenyl(endo-8-methyl-8-azabicyclo[3.2.1]octan-3-yl)amino]benzoate]
Ki: 0.459 µM
